Measured values as given in patent publication US11034650B2, “Compounds useful for treating a Mannheimia haemolytica or Histophilus somni infection” (Intervet Inc., priority 2016, dated 2021).
≈ marks a conversion by molar mass, not a printed value.

Experiments:
Type in all cases: cell-based
[1] = test system: Mannheimia haemolytica MH 12587 (1071, BRD field isolate, macrolide-resistance: erm+, E+); assay: MIC, broth-microdilution (CLSI VET01-A4), strain MH 12587; details: Mannheimia haemolytica strain MH 12587, broth-microdilution; unit assumed
Procedure, shortened: (§1)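 Compounds were serially diluted twofold in microdilution trays. Growth was judged by eye, and the MIC was the lowest concentration showing no turbidity. Results were interpreted per CLSI VET01-S3.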

[2] = test system: Mannheimia haemolytica MH 6374 (ATCC 33396, reference strain); assay: MIC, broth-microdilution (CLSI VET01-A4), strain MH 6374; details: Mannheimia haemolytica strain MH 6374, broth-microdilution; unit assumed
Procedure, shortened: as §1

[3] = test system: Pasteurella multocida PM 12080 (IV102277-0093, BRD field isolate); assay: MIC, broth-microdilution (CLSI VET01-A4), strain PM 12080; details: Pasteurella multocida strain PM 12080, broth-microdilution; unit assumed
Procedure, shortened: as §1

[4] = test system: Pasteurella multocida PM 10775 (080130003051, BRD field isolate); assay: MIC, broth-microdilution (CLSI VET01-A4), strain PM 10775; details: Pasteurella multocida strain PM 10775, broth-microdilution; unit assumed
Procedure, shortened: as §1

[5] = test system: Mannheimia haemolytica MH 13093 (XB0472-6014.1, BRD field isolate); assay: MIC, broth-microdilution (CLSI VET01-A4), strain MH 13093; details: Mannheimia haemolytica strain MH 13093, broth-microdilution; unit assumed
Procedure, shortened: as §1

[6] = test system: Pasteurella multocida PM 6267 (P 2225 (L386), reference strain, mouse infection strain); assay: MIC, broth-microdilution (CLSI VET01-A4), strain PM 6267; details: Pasteurella multocida strain PM 6267, broth-microdilution; unit assumed
Procedure, shortened: as §1

[7] = test system: Mannheimia haemolytica MH 10720 (154, BRD field isolate); assay: MIC, broth-microdilution (CLSI VET01-A4), strain MH 10720; details: Mannheimia haemolytica strain MH 10720, broth-microdilution; unit assumed
Procedure, shortened: as §1

[8] = test system: Mannheimia haemolytica MH 6357 (M7/2, reference strain, cattle infection strain); assay: MIC, broth-microdilution (CLSI VET01-A4), strain MH 6357; details: Mannheimia haemolytica strain MH 6357, broth-microdilution; unit assumed
Procedure, shortened: as §1

[9] = test system: Mannheimia haemolytica MH 13065 (XB0446-6003.9, BRD field isolate); assay: MIC, broth-microdilution (CLSI VET01-A4), strain MH 13065; details: Mannheimia haemolytica strain MH 13065, broth-microdilution; unit assumed
Procedure, shortened: as §1

[10] = test system: Pasteurella multocida PM 6391 (ATCC 43137, reference strain); assay: MIC, broth-microdilution (CLSI VET01-A4), strain PM 6391; details: Pasteurella multocida strain PM 6391, broth-microdilution; unit assumed
Protocol: For example, representative compounds were tested against ***, Mannheimia haemolytica and Pasteurella multocida, using the conventional broth-dilution assay.
The Minimum inhibitory concentrations (MIC) of compounds according to the invention for a number of veterinary bacterial pathogens were determined by the broth-microdilution method according to CLSI document VET01-A4.
Microdilution trays containing a doubling dilution series of the test compound were used for the tests. The MIC results were interpreted according to the CLSI documents VET01-S3. The lowest concentration of compound at which no visible growth (i.e. no turbidity) detected by the unaided eye was recorded as the MIC.

MIC PM 12080 [3] | MIC PM 10775 [4] | MIC PM 6267 [6] | MIC PM 6391 [10] | Compound | MIC MH 12587 [1] | MIC MH 6374 [2] | MIC MH 13093 [5] | MIC MH 10720 [7] | MIC MH 6357 [8] | MIC MH 13065 [9]
3.1 µg/mL (≈ 6.05 µM) | 0.4 µg/mL (≈ 0.78 µM) | 3.1 µg/mL (≈ 6.05 µM) |  | CC[C@H](C)[C@H](NC(=O)c1ccc(C#Cc2ccc(CNCc3ccc(N(C)C)cc3)cc2)cc1)C(=O)NO [Compound 130] | 12.5 µg/mL (≈ 24.4 µM) | 3.1 µg/mL (≈ 6.05 µM) | 6.3 µg/mL (≈ 12.3 µM) | 1.6 µg/mL (≈ 3.12 µM) | 3.1 µg/mL (≈ 6.05 µM) | 6.3 µg/mL (≈ 12.3 µM)
0.4 µg/mL (≈ 0.85 µM) | ≤ 0.1 µg/mL | ≤ 0.1 µg/mL |  | CC[C@H](C)[C@H](NC(=O)c1ccc(C#Cc2ccc(CNCc3ccncc3)cc2)cc1)C(=O)NO [Compound 132] | 0.8 µg/mL (≈ 1.7 µM) | 0.8 µg/mL (≈ 1.7 µM) | 0.8 µg/mL (≈ 1.7 µM) | 0.2 µg/mL (≈ 0.425 µM) | 1.6 µg/mL (≈ 3.4 µM) | 0.8 µg/mL (≈ 1.7 µM)
3.1 µg/mL (≈ 6.37 µM) | ≤ 0.1 µg/mL | 0.8 µg/mL (≈ 1.64 µM) |  | CN(C)c1ccc(CNCc2ccc(C#Cc3ccc(C(=O)N[C@@H](CO)C(=O)NO)cc3)cc2)cc1 [Compound 134] | 12.5 µg/mL (≈ 25.7 µM) | 6.3 µg/mL (≈ 12.9 µM) | 25 µg/mL (≈ 51.4 µM) | 6.3 µg/mL (≈ 12.9 µM) | 25 µg/mL (≈ 51.4 µM) | 12.5 µg/mL (≈ 25.7 µM)
0.8 µg/mL (≈ 1.57 µM) | ≤ 0.1 µg/mL | 0.8 µg/mL (≈ 1.57 µM) |  | CC(C)[C@H](NC(=O)c1ccc(C#Cc2ccc(CN3CCN(c4ccccc4)CC3)cc2)cc1)C(=O)NO [Compound 135] | 1 µg/mL (≈ 1.96 µM) | 6.3 µg/mL (≈ 12.3 µM) | 25 µg/mL (≈ 49 µM) | 0.8 µg/mL (≈ 1.57 µM) | 3.1 µg/mL (≈ 6.07 µM) | 25 µg/mL (≈ 49 µM)
≤ 0.1 µg/mL | ≤ 0.1 µg/mL | ≤ 0.1 µg/mL |  | CC[C@H](C)[C@H](NC(=O)c1ccc(C#Cc2ccc(CNCc3nccs3)cc2)cc1)C(=O)NO [Compound 188] | 3.1 µg/mL (≈ 6.5 µM) | 1.6 µg/mL (≈ 3.36 µM) | 0.8 µg/mL (≈ 1.68 µM) | ≤ 0.1 µg/mL | 0.8 µg/mL (≈ 1.68 µM) | 0.8 µg/mL (≈ 1.68 µM)
≤ 0.1 µg/mL | ≤ 0.1 µg/mL | ≤ 0.1 µg/mL |  | CC[C@H](C)[C@H](NC(=O)c1ccc(C#Cc2ccc(CNCC#N)cc2)cc1)C(=O)NO [Compound 192] | 3.1 µg/mL (≈ 7.41 µM) | 1.6 µg/mL (≈ 3.82 µM) | 0.8 µg/mL (≈ 1.91 µM) | 0.2 µg/mL (≈ 0.478 µM) | 0.8 µg/mL (≈ 1.91 µM) | 0.8 µg/mL (≈ 1.91 µM)
1.6 µg/mL (≈ 4.07 µM) | ≤ 0.1 µg/mL | 0.4 µg/mL (≈ 1.02 µM) | 1.6 µg/mL (≈ 4.07 µM) | CC[C@H](C)[C@H](NC(=O)c1ccc(C#Cc2ccc(CNC)cc2)cc1)C(=O)NO [Compound 194] | 25 µg/mL (≈ 63.5 µM) | 25 µg/mL (≈ 63.5 µM) | 12.5 µg/mL (≈ 31.8 µM) |  | 6.3 µg/mL (≈ 16 µM) | 6.3 µg/mL (≈ 16 µM)
≤ 0.1 µg/mL | ≤ 0.1 µg/mL | ≤ 0.1 µg/mL |  | CC(C)[C@H](NC(=O)c1ccc(C#Cc2ccc(CN3CCCOCC3)cc2)cc1)C(=O)NO [Compound 202] | 3.1 µg/mL (≈ 6.9 µM) | 3.1 µg/mL (≈ 6.9 µM) | 1.6 µg/mL (≈ 3.56 µM) | 0.2 µg/mL (≈ 0.445 µM) | 0.8 µg/mL (≈ 1.78 µM) | 1.6 µg/mL (≈ 3.56 µM)
≤ 0.1 µg/mL | ≤ 0.1 µg/mL | ≤ 0.1 µg/mL |  | COCCN(C)Cc1ccc(C#Cc2ccc(C(=O)N[C@H](C(=O)NO)C(C)C)cc2)cc1 [Compound 203] | 3.1 µg/mL (≈ 7.09 µM) | 1.6 µg/mL (≈ 3.66 µM) | 1.6 µg/mL (≈ 3.66 µM) | 0.2 µg/mL (≈ 0.457 µM) | 1.6 µg/mL (≈ 3.66 µM) | 0.8 µg/mL (≈ 1.83 µM)
≤ 0.1 µg/mL | ≤ 0.1 µg/mL | ≤ 0.1 µg/mL |  | CC(C)[C@H](NC(=O)c1ccc(C#Cc2ccc(CNCC#N)cc2)cc1)C(=O)NO [Compound 204] | 0.8 µg/mL (≈ 1.98 µM) | 0.4 µg/mL (≈ 0.989 µM) | 0.4 µg/mL (≈ 0.989 µM) | ≤ 0.1 µg/mL | 0.4 µg/mL (≈ 0.989 µM) | 0.2 µg/mL (≈ 0.494 µM)
0.8 µg/mL (≈ 1.84 µM) |  | ≤ 0.1 µg/mL | 0.8 µg/mL (≈ 1.84 µM) | CC(C)(O)[C@H](NC(=O)c1ccc(C#Cc2ccc(CN3CCCC3)cc2)cc1)C(=O)NO [Compound 225] | 12.5 µg/mL (≈ 28.7 µM) | 6.3 µg/mL (≈ 14.5 µM) | 12.5 µg/mL (≈ 28.7 µM) | 1.6 µg/mL (≈ 3.67 µM) | 12.5 µg/mL (≈ 28.7 µM) | 12.5 µg/mL (≈ 28.7 µM)
